The values below come from patent publication US12059422B2 (MEI Pharma, Inc., priority 2011, dated 2024).

Molecules are shown by their SMILES.

As usually defined, the IC50 is the concentration that gives 50% inhibition.

The target in one experiment is mTOR (Homo sapiens, UniProt P42345). The experiment in a line: mTOR inhibition (Table 1). The experiment is classed as biochemical. The conditions noted are these: Table 1, no method described.
The target of a further experiment is T1, PI3K gamma (Homo sapiens, UniProt P48736).
T1 construct: purchased Invitrogen Corp., Carlsbad, CA, USA
T1 sequence (P48736 whole entry, species assumed): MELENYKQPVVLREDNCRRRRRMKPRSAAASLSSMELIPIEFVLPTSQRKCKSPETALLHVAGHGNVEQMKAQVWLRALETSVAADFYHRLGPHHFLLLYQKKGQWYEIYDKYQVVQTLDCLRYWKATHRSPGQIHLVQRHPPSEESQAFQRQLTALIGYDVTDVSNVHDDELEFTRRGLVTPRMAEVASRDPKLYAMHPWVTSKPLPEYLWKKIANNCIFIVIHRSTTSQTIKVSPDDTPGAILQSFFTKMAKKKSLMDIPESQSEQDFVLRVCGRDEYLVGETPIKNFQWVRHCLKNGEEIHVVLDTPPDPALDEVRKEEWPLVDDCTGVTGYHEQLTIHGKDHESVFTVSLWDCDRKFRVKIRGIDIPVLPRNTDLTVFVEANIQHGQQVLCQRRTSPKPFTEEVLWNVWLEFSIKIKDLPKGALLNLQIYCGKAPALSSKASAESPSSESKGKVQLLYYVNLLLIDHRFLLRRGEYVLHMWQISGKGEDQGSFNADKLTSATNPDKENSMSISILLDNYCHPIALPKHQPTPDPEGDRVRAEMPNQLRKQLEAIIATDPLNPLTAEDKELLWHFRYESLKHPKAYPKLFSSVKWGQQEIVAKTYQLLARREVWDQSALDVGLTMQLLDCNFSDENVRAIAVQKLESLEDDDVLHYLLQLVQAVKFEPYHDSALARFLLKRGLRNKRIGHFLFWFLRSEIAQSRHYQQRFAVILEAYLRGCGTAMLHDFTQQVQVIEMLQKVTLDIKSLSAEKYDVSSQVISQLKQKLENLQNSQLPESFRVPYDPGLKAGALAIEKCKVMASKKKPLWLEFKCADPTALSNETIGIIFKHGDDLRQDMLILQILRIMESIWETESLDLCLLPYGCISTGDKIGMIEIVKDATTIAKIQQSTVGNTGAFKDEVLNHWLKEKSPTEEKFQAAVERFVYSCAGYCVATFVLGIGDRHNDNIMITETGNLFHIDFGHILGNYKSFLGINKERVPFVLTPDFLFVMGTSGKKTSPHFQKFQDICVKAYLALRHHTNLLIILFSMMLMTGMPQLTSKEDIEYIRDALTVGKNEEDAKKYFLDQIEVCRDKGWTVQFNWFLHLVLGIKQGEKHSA
The experiment in a line: Luciferase-based luminescence assay (ADP Glo), PI3K gamma enzymatic activity. The experiment is classed as biochemical. The conditions noted are these: inhibition of enzymatic activity, 25 μM ATP, read-out: IC50 p110γ. The essentials: (§1)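 Final enzyme 4.8 nM PI3K beta or 7.6 nM PI3K gamma, with 50 μM PIP2 and 25 μM ATP, 1 h in HEPES pH 7.5 buffer with MgCl2, EGTA, NaCl, CHAPS and DTT. ADP formed measured by ADP-Glo luminescence; IC50 from 10-point curve fits.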

The target in the next experiment is T2, PI3Kβ (Homo sapiens, UniProt P42338).
T2 construct: endogenous in cells; host or cells: PC-3 (ATCC #CRL-1435)
T2 sequence (P42338 whole entry): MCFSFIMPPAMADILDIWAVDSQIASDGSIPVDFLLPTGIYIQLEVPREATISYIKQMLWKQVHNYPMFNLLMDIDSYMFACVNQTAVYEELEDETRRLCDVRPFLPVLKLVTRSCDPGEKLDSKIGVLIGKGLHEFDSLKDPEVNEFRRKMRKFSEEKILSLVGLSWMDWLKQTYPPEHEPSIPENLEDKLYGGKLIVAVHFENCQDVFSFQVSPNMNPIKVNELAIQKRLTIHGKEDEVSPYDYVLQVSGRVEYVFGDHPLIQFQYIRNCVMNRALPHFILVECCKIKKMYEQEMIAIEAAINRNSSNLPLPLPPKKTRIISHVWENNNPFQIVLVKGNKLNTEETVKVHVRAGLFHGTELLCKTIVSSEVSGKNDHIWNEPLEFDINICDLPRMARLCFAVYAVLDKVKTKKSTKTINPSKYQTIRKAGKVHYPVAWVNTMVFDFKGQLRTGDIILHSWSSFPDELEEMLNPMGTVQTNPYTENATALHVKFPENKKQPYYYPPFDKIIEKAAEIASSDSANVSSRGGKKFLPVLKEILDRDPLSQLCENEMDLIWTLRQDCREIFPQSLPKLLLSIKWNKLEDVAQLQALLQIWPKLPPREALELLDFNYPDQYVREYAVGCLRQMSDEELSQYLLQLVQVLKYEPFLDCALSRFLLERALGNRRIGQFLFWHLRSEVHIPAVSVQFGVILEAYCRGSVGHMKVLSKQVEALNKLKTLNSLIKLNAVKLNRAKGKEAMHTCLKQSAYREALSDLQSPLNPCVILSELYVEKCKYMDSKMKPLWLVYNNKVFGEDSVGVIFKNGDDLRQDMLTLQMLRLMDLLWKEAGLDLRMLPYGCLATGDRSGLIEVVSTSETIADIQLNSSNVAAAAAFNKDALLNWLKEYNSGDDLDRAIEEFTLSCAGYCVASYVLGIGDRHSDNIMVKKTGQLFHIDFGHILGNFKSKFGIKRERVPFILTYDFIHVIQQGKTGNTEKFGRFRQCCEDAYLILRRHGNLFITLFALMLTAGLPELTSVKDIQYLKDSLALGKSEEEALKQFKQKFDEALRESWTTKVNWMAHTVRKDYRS
T2 sequence (P27986 whole entry partner): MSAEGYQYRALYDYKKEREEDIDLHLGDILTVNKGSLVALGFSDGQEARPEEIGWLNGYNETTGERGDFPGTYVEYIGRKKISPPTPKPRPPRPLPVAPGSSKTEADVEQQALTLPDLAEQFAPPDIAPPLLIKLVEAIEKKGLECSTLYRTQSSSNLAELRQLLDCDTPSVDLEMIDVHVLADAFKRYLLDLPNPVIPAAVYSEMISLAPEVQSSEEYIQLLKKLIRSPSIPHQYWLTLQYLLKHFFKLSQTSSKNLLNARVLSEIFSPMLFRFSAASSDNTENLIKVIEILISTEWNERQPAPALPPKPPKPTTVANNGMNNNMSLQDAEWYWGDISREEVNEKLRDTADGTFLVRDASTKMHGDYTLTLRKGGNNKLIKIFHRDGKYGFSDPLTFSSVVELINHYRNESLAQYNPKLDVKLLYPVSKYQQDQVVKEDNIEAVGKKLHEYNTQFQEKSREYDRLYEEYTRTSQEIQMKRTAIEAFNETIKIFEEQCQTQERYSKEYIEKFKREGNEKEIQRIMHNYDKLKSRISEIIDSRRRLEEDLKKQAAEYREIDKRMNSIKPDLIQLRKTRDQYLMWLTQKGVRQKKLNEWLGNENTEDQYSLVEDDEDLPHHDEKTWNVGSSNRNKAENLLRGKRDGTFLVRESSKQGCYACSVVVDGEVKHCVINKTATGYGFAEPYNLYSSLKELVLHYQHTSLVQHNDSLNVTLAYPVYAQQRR
The experiment in a line: ELISA assay for PI3Kβ: in-cell ELISA, phosphorylation of AKT (Ser473) in PC-3 cells. The experiment is classed as cell-based. The conditions noted are these: for IC50: cellular, pAKT (Ser473), PC-3 cells, LPA stimulation, read-out: IC50 p110β; for α/β ratio: ratio of cellular IC50 values, Table 2. The protocol: Cellular PI3Kβ activity was determined by measuring the phosphorylation of AKT (Ser473) using an in-cell ELISA assay. PC-3 (prostate carcinoma) cells were obtained from ATCC (ATCC #CRL-1435). Growth medium was DMEM (CellGro #CV-10-013-CV) supplemented with 10% fetal bovine serum, 100 IU/mL penicillin, 100 μg/mL streptomycin, and 1×MEM non-essential amino acids. Phosphate buffered saline (PBS) contained 2.7 M NaCl, 54 mM KCl, 86 mM […] (dibasic, anhydrous), 28 mM […] (monobasic, anhydrous), pH 7.2, 10× stimulation mixture contained 50 μM LPA (Cayman #62215) diluted in serum-free DMEM medium (CellGro #CV-10-013-CV). Compounds for testing were dissolved and serially diluted in 100% DMSO (total of 10 concentrations), then diluted in serum-free DMEM to 2× final assay concentration. 2× fixative solution contained 8% formaldehyde (Amresco #M134) diluted in PBS. Permeabilization solution contained PBS supplemented with 0.1% Triton X-100. Blocking buffer was obtained from LiCor (LiCor #927-40000). Wash buffer contained PBS supplemented with 0.1% Tween-20. Primary antibody solution was rabbit anti-pAKT^S473 monoclonal antibody (Cell Signaling #4060) and mouse anti-total S6 (Santa Cruz #74459) diluted 1:500 and 1:2000, respectively, in blocking buffer. Secondary antibody solution was IRDye 800CW-conjugated goat anti-rabbit IgG (LiCor #926-32211) and IRDye 680LT-conjugated goat anti-mouse IgG (LiCor #926-68020) diluted 1:2000 and 1:1000, respectively, in blocking buffer.
PC-3 cells were subcultured in growth medium and seeded into flat, clear bottom, 96-well plates (Corning #3904) at 16000 cells/well, then incubated overnight in a 37° C., 5% CO2 incubator. Growth medium in plates was replaced with 100 μL/well serum-free DMEM and incubated overnight in a 37° C., 5% CO2 incubator. 50 μL/well of fresh serum-free DMEM was added to plates. Compound treatment was performed by adding 50 μL/well of 2× compound mixture to plates and incubating for 2 hrs at 37° C., 5% CO2, after which 11 μL/well of 10× stimulation mixture was added and plates were incubated for 10 min at 37° C., 5% CO2. Fixation was performed by adding 110 μL/well of 2× fixative solution to plates and incubating for 20 min at room temperature. Permeabilization was performed by replacing fixation solution with 150 μL/well permeabilization solution and incubating for 10 min at room temperature. Permeabilization was repeated (for a total of 2 times). Permeabilization solution was replaced with 100 μL/well blocking buffer and plates were incubated for 1 hr at room temperature, after which 100 μL/well of primary antibody solution was added and plates were incubated overnight at 4° C. Plates were washed with wash buffer, after which 100 μL/well of secondary antibody solution was added to the plates and incubated in the dark for 1 hr at room temperature. Plates were washed with wash buffer, followed by awash with PBS. After completely removing PBS, plates were scanned on the Licor Odyssey Imager. Images quantified using Licor Odyssey application software. IC50 values were determined by curve fitting using a Collaborative Drug Discovery database (www.collaborativedrug.com).

A further experiment addresses T3, PI3K beta (Homo sapiens, UniProt P42338).
T3 construct: purchased Millipore, Billerica, MA, USA
As to the kind of experiment: Luciferase-based luminescence assay (ADP Glo), PI3K beta enzymatic activity. The format is biochemical. The conditions noted are these: for IC50: inhibition of enzymatic activity, ADP Glo, 25 μM ATP, read-out: IC50 p110β; for α/β ratio: ratio of enzymatic IC50 values, Table 1. The essentials:
as §1
(In general: In ADP-Glo the light output rises with the ADP produced.)

T3 sequence (P42338 whole entry, species assumed): as the sequence (P42338 whole entry) above
T3 sequence (P27986 whole entry partner, species assumed): as the sequence (P27986 whole entry partner) above

Consider `COc1cc(-c2ccccc2CC(C)(C)Nc2nc(N3CCOCC3)nc(-n3c(C(F)F)nc4ccccc43)n2)ccn1` [Compound A41, 4-(2-(difluoromethyl)-1H-benzo[d]imidazol-1-yl)-N-(1-(2-(2-methoxypyridin-4-yl)phenyl)-2-methylpropan-2-yl)-6-morpholino-1,3,5-triazin-2-amine], for which the IC50 was greater than 500 nM on mTOR, greater than 500 nM on PI3K gamma, 100 to 200 nM on PI3Kβ and greater than 500 nM at PI3K beta. Besides, the results for the α/β ratio entry on PI3Kβ and on PI3K beta were “B’” and “D’”, respectively.
Regarding `Cc1cc(-c2ccccc2CC(C)(C)Nc2nc(N3CCOCC3)nc(-n3c(C(F)F)nc4ccccc43)n2)ccn1` [Compound A43, 4-(2-(difluoromethyl)-1H-benzo[d]imidazol-1-yl)-N-(2-methyl-1-(2-(2-methylpyridin-4-yl)phenyl)propan-2-yl)-6-morpholino-1,3,5-triazin-2-amine], the IC50 at mTOR was greater than 500 nM; at PI3K gamma, greater than 500 nM; at PI3Kβ, no more than 100 nM; at PI3K beta, no more than 100 nM. Moreover, the α/β ratio entry on PI3Kβ was “C’”; at PI3K beta, “A’”.
As to `CC(C)(Cc1ccccc1-c1cn[nH]c1)Nc1nc(N2CCOCC2)nc(-n2c(C(F)F)nc3ccccc32)n1` [Compound A44, 4-(2-(difluoromethyl)-1H-benzo[d]imidazol-1-yl)-N-(1-(2-(1H-pyrazol-4-yl)phenyl)-2-methylpropan-2-yl)-6-morpholino-1,3,5-triazin-2-amine], the half-inhibitory concentration (IC50) was greater than 500 nM against mTOR, 100 to 200 nM at PI3K gamma, no more than 100 nM on PI3Kβ and no more than 100 nM on PI3K beta. The α/β ratio result on PI3Kβ and at PI3K beta was “A’” in each case.
`Cn1cc(-c2ccccc2CC(C)(C)Nc2nc(N3CCOCC3)nc(-n3c(C(F)F)nc4ccccc43)n2)cn1` [Compound A45, 4-(2-(difluoromethyl)-1H-benzo[d]imidazol-1-yl)-N-(2-methyl-1-(2-(1-methyl-1H-pyrazol-4-yl)phenyl)propan-2-yl)-6-morpholino-1,3,5-triazin-2-amine]: the IC50 against mTOR was greater than 500 nM; on PI3K gamma it was 200 to 500 nM; at PI3Kβ it was no more than 100 nM; at PI3K beta, no more than 100 nM. The α/β ratio result on PI3Kβ and on PI3K beta was “A’” in each case.
For the molecule `Cn1nccc1-c1ccccc1CC(C)(C)Nc1nc(N2CCOCC2)nc(-n2c(C(F)F)nc3ccccc32)n1` [Compound A46, 4-(2-(difluoromethyl)-1H-benzo[d]imidazol-1-yl)-N-(2-methyl-1-(2-(1-methyl-1H-pyrazol-5-yl)phenyl)propan-2-yl)-6-morpholino-1,3,5-triazin-2-amine], the IC50 is greater than 500 nM against mTOR, greater than 500 nM on PI3K gamma, no more than 100 nM on PI3Kβ and no more than 100 nM on PI3K beta. The α/β ratio result at PI3Kβ and on PI3K beta was “A’” each time.
As for `Cc1cccc(CC(C)(C)Nc2nc(N3CCOCC3)nc(-n3c(C(F)F)nc4ccccc43)n2)c1` [Compound A49, 4-(2-(difluoromethyl)-1H-benzo[d]imidazol-1-yl)-N-(2-methyl-1-m-tolylpropan-2-yl)-6-morpholino-1,3,5-triazin-2-amine], the IC50 was greater than 500 nM at mTOR, 200 to 500 nM on PI3K gamma, no more than 100 nM on PI3Kβ and no more than 100 nM at PI3K beta. Besides, the α/β ratio entry at PI3Kβ was “B’”; on PI3K beta it was “A’”.
Take `COc1cc(CC(C)(C)Nc2nc(N3CCOCC3)nc(-n3c(C(F)F)nc4ccccc43)n2)ccc1F` [Compound A50, 4-(2-(difluoromethyl)-1H-benzo[d]imidazol-1-yl)-N-(1-(4-fluoro-3-methoxyphenyl)-2-methylpropan-2-yl)-6-morpholino-1,3,5-triazin-2-amine]: the IC50 on mTOR is greater than 500 nM; at PI3K gamma, greater than 500 nM; on PI3Kβ it was no more than 100 nM; on PI3K beta, no more than 100 nM. The α/β ratio result on PI3Kβ and on PI3K beta was “B’” each time.
On to `CC(C)(Cc1ccc(F)cc1F)Nc1nc(N2CCOCC2)nc(-n2c(C(F)F)nc3ccccc32)n1` [Compound A51, 4-(2-(difluoromethyl)-1H-benzo[d]imidazol-1-yl)-N-(1-(2,4-difluorophenyl)-2-methylpropan-2-yl)-6-morpholino-1,3,5-triazin-2-amine], for which the IC50 at mTOR was greater than 500 nM; at PI3K gamma it was 200 to 500 nM; on PI3Kβ, 100 to 200 nM; on PI3K beta, greater than 500 nM. Moreover, the α/β ratio result was “C’” on PI3Kβ and “D’” at PI3K beta.
As to `CC(C)(Cc1c(F)cccc1F)Nc1nc(N2CCOCC2)nc(-n2c(C(F)F)nc3ccccc32)n1` [Compound A52, 4-(2-(difluoromethyl)-1H-benzo[d]imidazol-1-yl)-N-(1-(2,6-difluorophenyl)-2-methylpropan-2-yl)-6-morpholino-1,3,5-triazin-2-amine], the IC50 is greater than 500 nM against mTOR, no more than 100 nM at PI3K gamma, no more than 100 nM at PI3Kβ and greater than 500 nM on PI3K beta. The α/β ratio result at PI3Kβ is “C’”; at PI3K beta it was “D’”.
Take `CC(C)(Cc1ccccc1-c1ccccc1F)Nc1nc(N2CCOCC2)nc(-n2c(C(F)F)nc3ccccc32)n1` [Compound A59, 4-(2-(difluoromethyl)-1H-benzo[d]imidazol-1-yl)-N-(1-(2′-fluorobiphenyl-2-yl)-2-methylpropan-2-yl)-6-morpholino-1,3,5-triazin-2-amine]: the IC50 was greater than 500 nM against mTOR, greater than 500 nM at PI3K gamma, 100 to 200 nM on PI3Kβ and 200 to 500 nM at PI3K beta. Moreover, the α/β ratio entry on PI3Kβ was “A’”; on PI3K beta, “C’”.
On to `Cc1ccccc1-c1ccccc1CC(C)(C)Nc1nc(N2CCOCC2)nc(-n2c(C(F)F)nc3ccccc32)n1` [Compound A60, 4-(2-(difluoromethyl)-1H-benzo[d]imidazol-1-yl)-N-(2-methyl-1-(2′-methylbiphenyl-2-yl)propan-2-yl)-6-morpholino-1,3,5-triazin-2-amine], for which the concentration for half-maximal inhibition (IC50) against mTOR is greater than 500 nM; at PI3K gamma, greater than 500 nM; at PI3Kβ, 200 to 500 nM; on PI3K beta, no more than 100 nM. Moreover, the α/β ratio result at PI3Kβ and on PI3K beta was “A’” throughout.
In the case of `CC(C)(Cc1ccccc1-c1ccccc1Cl)Nc1nc(N2CCOCC2)nc(-n2c(C(F)F)nc3ccccc32)n1` [Compound A61, 4-(2-(difluoromethyl)-1H-benzo[d]imidazol-1-yl)-N-(1-(6′-chlorobiphenyl-2-yl)-2-methylpropan-2-yl)-6-morpholino-1,3,5-triazin-2-amine], the IC50 at mTOR is greater than 500 nM; on PI3K gamma, greater than 500 nM; on PI3Kβ, 100 to 200 nM; on PI3K beta it was no more than 100 nM. Also, the α/β ratio entry at PI3Kβ and on PI3K beta was “A’” throughout.
As to `CC(C)(Cc1ccccc1-c1cccnc1F)Nc1nc(N2CCOCC2)nc(-n2c(C(F)F)nc3ccccc32)n1` [Compound A62], the IC50 at mTOR was greater than 500 nM; at PI3K gamma, greater than 500 nM; at PI3Kβ it was no more than 100 nM; at PI3K beta it was greater than 500 nM. Moreover, the α/β ratio result on PI3Kβ is reported as “A’”; at PI3K beta, “D’”.
